Reference: patent US20250228239A1, “MOLECULES HAVING PESTICIDAL UTILITY, AND INTERMEDIATES, COMPOSITIONS, AND PROCESSES, RELATED THERETO” (priority 2024, published 2025)
Read-outs that look alike come from different tables or passages of the source.

Assays:
Format in all cases: in vivo
[1] = test system: Beet Armyworm (Spodoptera exigua, LAPHEG); assay: Bioassays on Beet Armyworm (BAW), 128-well diet tray assay; conditions: Spodoptera exigua; for mortality at 50 µg/cm2: 168 h, second instar larvae, 50 μg/cm^2 of test molecule on artificial diet, 25° C., five to seven days, average of eight wells, read-out: BAW % Control (or Mortality) rating
Summary of the method: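 One to five second-instar larvae per well on artificial diet surface-treated with 50 μg/cm^2 test molecule (applied in 90:10 acetone-water, dried), eight wells per compound. Trays held vented at 25° C., 14:10 light-dark for five to seven days; percent mortality averaged over the eight wells.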

[2] = test system: Cabbage Looper (Trichoplusia ni, TRIPNI); assay: Bioassays on Cabbage Looper (CL), 128-well diet tray assay; conditions: Trichoplusia ni; for mortality at 50 µg/cm2: 168 h, second instar larvae, 50 μg/cm^2 of test molecule on artificial diet, 25° C., five to seven days, average of eight wells, read-out: CL % Control (or Mortality) rating
Summary of the method: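 One to five second-instar larvae per well on artificial diet surface-treated with 50 μg/cm^2 test molecule (applied in 90:10 acetone-water, dried). Held 5–7 days at 25° C, 14:10 light-dark; percent mortality recorded per well and averaged over eight wells.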

[3] = test system: Yellow Fever Mosquito (Aedes aegypti, AEDSAE); conditions: for YFM rating: Yellow Fever Mosquito, Table ABC / ABC-DP rating; for YFM % Control (or Mortality) rating: about 1 day-old larvae, 4000 ppm master solution diluted with 90:10 water/acetone, 15 μL per well plus 220 μL larval mixture, 3 days; for YFM: Table ABC: Biological Results, species YFM
Procedure: Certain molecules disclosed in this document were tested against YFM using procedures described in the following paragraph. In the reporting of the results, the “GPA & YFM Rating Table” was used (See Table Section).
Master plates containing 400 μg of a molecule dissolved in 100 μL of dimethyl sulfoxide (DMSO) (equivalent to a 4000 ppm solution) are used. A master plate of assembled molecules contains 15 μL per well. To this plate, 135 μL of a 90:10 water/acetone mixture is added to each well. A robot (Biomek® NXP Laboratory Automation Workstation) is programmed to dispense 15 μL aspirations from the master plate into an empty 96-well shallow plate (“daughter” plate). There are 6 reps (“daughter” plates) created per master. The created “daughter” plates are then immediately infested with YFM larvae.
The day before plates are to be treated, mosquito eggs are placed in Millipore water containing liver powder to begin hatching (4 g into 400 mL). After the “daughter” plates are created using the robot, they are infested with 220 μL of the liver powder/larval mosquito mixture (about 1 day-old larvae). After plates are infested with mosquito larvae, a non-evaporative lid is used to cover the plate to reduce drying. Plates are held at room temperature for 3 days prior to grading. After 3 days, each well is observed and scored based on mortality. The results are indicated in the table entitled “Table ABC: Biological Results” (See Table Section).

[4] = Beet Armyworm, Table ABC / ABC-DP rating, read-out: BAW rating
[5] = Cabbage Looper, Table ABC / ABC-DP rating, read-out: CL rating
[6] = Table ABC: Biological Results, species BAW, read-out: BAW
[7] = Table ABC: Biological Results, species CL, read-out: CL

Work on `Cc1cc(N)ccc1NC(=O)c1cc(NC(=O)[C@H]2[C@H](c3ccc(Cl)c(Cl)c3)C2(Cl)Cl)ccc1Cl` (relative stereo) [DP1, trans-N-(4-amino-2-methylphenyl)-2-chloro-5-(2,2-dichloro-3-(3,4-dichlorophenyl)cyclopropane-1-carboxamido)benzamide] yielded a mortality at 50 µg/cm2 [1] of 50 to 100%, a pest or weed control at 50 µg/cm2 [1, 4] of 50 to 100% and a mortality at 50 µg/cm2 [2] of 50 to 100%. The pest or weed control at 50 µg/cm2 [2, 5] was 50 to 100%, the YFM rating [3] was “A (80–100)” and the “YFM % Control (or Mortality) rating” value [3] was “A (80–100)”.

Work on `Cc1cc(N)ccc1NC(=O)c1cc(NC(=O)[C@H]2[C@H](c3cc(Cl)cc(Cl)c3)C2(Cl)Cl)ccc1Cl` (relative stereo) [DP4, trans-N-(4-Amino-2-methylphenyl)-2-chloro-5-(2,2-dichloro-3-(3,5-dichlorophenyl)cyclopropane-1-carboxamido)benzamide] yielded a mortality at 50 µg/cm2 [1] of 50 to 100%, a pest or weed control at 50 µg/cm2 [1, 4] of 50 to 100% and a mortality at 50 µg/cm2 [2] of 50 to 100%. For the same molecule, the pest or weed control at 50 µg/cm2 [2, 5] was 50 to 100%, the YFM rating [3] was “A (80–100)” and the “YFM % Control (or Mortality) rating” value [3] was “A (80–100)”.

In the case of `Cc1cc(NC(=O)OC(C)(C)C)ccc1NC(=O)c1cc(NC(=O)[C@H]2[C@H](c3cc(Cl)cc(Cl)c3)C2(Cl)Cl)ccc1Cl` (relative stereo) [DP10, trans-tert-butyl-(4-(2-chloro-5-(2,2-dichloro-3-(3,5-dichlorophenyl)cyclopropane-1-carboxamido)benzamido)-3-methylphenyl)carbamate], the mortality at 50 µg/cm2 [1] is reported as 50 to 100%, the pest or weed control at 50 µg/cm2 [1, 4] is reported as 50 to 100% and the mortality at 50 µg/cm2 [2] is reported as 50 to 100%. The pest or weed control at 50 µg/cm2 [2, 5] was 50 to 100%, the YFM rating [3] was “A (80–100)” and the “YFM % Control (or Mortality) rating” value [3] was “A (80–100)”.

`O=C(Nc1cc(F)c(F)c(Br)c1)c1cc(NC(=O)[C@H]2[C@H](c3cc(Cl)cc(Cl)c3)C2(Cl)Cl)ccc1Cl` (relative stereo) [DP11, trans-N-(3-Bromo-4,5-difluorophenyl)-2-chloro-5-(2,2-dichloro-3-(3,5-dichlorophenyl)cyclopropane-1-carboxamido)benzamide] gave a mortality at 50 µg/cm2 [1] of 50 to 100%, a pest or weed control at 50 µg/cm2 [1, 4] of 50 to 100% and a mortality at 50 µg/cm2 [2] of 50 to 100%. The pest or weed control at 50 µg/cm2 [2, 5] was 50 to 100%, the YFM rating [3] was “A (80–100)” and the “YFM % Control (or Mortality) rating” value [3] was “A (80–100)”.

With `O=C(Nc1ccc(F)cc1F)c1cc(NC(=O)[C@H]2[C@H](c3cc(C(F)(F)F)ccc3Cl)C2(Cl)Cl)ccc1Cl` (relative stereo) [F1004, trans-2-Chloro-5-(2,2-dichloro-3-(2-chloro-5-(trifluoromethyl)phenyl)cyclopropane-1-carboxamido)-N-(2,4-difluorophenyl)benzamide] the pest or weed control at 50 µg/cm2 [1, 6] was 50 to 100%, the pest or weed control at 50 µg/cm2 [2, 7] was 50 to 100% and the YFM [3] was “A (80–100)”.

For `O=C(Nc1ccc(F)cc1)c1cc(NC(=O)[C@H]2[C@H](c3cc(Cl)c(Cl)c(Br)c3)C2(Cl)Cl)ccc1Cl` (relative stereo) [F1005, trans-5-(3-(3-bromo-4,5-dichlorophenyl)-2,2-dichlorocyclopropane-1-carboxamido)-2-chloro-N-(4-fluorophenyl)benzamide], the pest or weed control at 50 µg/cm2 [1, 6] was 50 to 100%, the pest or weed control at 50 µg/cm2 [2, 7] was 50 to 100% and the YFM [3] was “A (80–100)”.

For `O=C(Nc1ccc(F)cc1F)c1cc(NC(=O)[C@H]2[C@H](c3cc(Cl)c(Br)c(Cl)c3)C2(Cl)Cl)ccc1Cl` (relative stereo) [F1006, trans-5-(3-(4-Bromo-3,5-dichlorophenyl)-2,2-dichlorocyclopropane-1-carboxamido)-2-chloro-N-(2,4-difluorophenyl)benzamide], the pest or weed control at 50 µg/cm2 [1, 6] was 50 to 100%, the pest or weed control at 50 µg/cm2 [2, 7] was 50 to 100% and the YFM [3] was “A (80–100)”.

With `O=C(Nc1ccc(F)cc1F)c1cc(NC(=O)[C@H]2[C@H](c3c(F)c(F)c(F)c(F)c3F)C2(Cl)Cl)ccc1Cl` (relative stereo) [F1009, trans-2-Chloro-5-(2,2-dichloro-3-(perfluorophenyl)cyclopropane-1-carboxamido)-N-(2,4-difluorophenyl)benzamide] the pest or weed control at 50 µg/cm2 [1, 6] was 50 to 100%, the pest or weed control at 50 µg/cm2 [2, 7] was 50 to 100% and the YFM [3] was “A (80–100)”.

In the case of `Cc1cc(NCc2ccc(Cl)cc2)ccc1NC(=O)c1cc(NC(=O)[C@H]2[C@H](c3cc(Cl)cc(Cl)c3)C2(Cl)Cl)ccc1Cl` (relative stereo) [F1010, trans-2-chloro-N-(4-((4-chlorobenzyl)amino)-2-methylphenyl)-5-(2,2-dichloro-3-(3,5-dichlorophenyl)cyclopropane-1-carboxamido)benzamide], the pest or weed control at 50 µg/cm2 [1, 6] is reported as 50 to 100%, the pest or weed control at 50 µg/cm2 [2, 7] is reported as 50 to 100% and the YFM [3] is reported as “A (80–100)”.

`O=C(Nc1ccc(F)cc1F)c1cc(NC(=O)[C@H]2[C@H](c3cc(F)c(F)c(Br)c3)C2(Cl)Cl)ccc1Cl` (relative stereo) [F1011, trans-5-(3-(3-Bromo-4,5-difluorophenyl)-2,2-dichlorocyclopropane-1-carboxamido)-2-chloro-N-(2,4-difluorophenyl)benzamide] was tested, and the pest or weed control at 50 µg/cm2 [1, 6] was 50 to 100%, the pest or weed control at 50 µg/cm2 [2, 7] was 50 to 100% and the YFM [3] was “A (80–100)”.

With `O=C(Nc1ccc(F)cc1F)c1cc(NC(=O)[C@H]2[C@@H](c3cc(F)c(F)c(Br)c3)C2(Cl)Cl)ccc1Cl` (relative stereo) [F1012, cis-5-(3-(3-Bromo-4,5-difluorophenyl)-2,2-dichlorocyclopropane-1-carboxamido)-2-chloro-N-(2,4-difluorophenyl)benzamide] the pest or weed control at 50 µg/cm2 [1, 6] was 50 to 100%, the pest or weed control at 50 µg/cm2 [2, 7] was 50 to 100% and the YFM [3] was “A (80–100)”.

With `CC(C)(C)OC(=O)Nc1ccc(F)c(NC(=O)c2cc(NC(=O)[C@H]3[C@H](c4cc(Cl)cc(Cl)c4)C3(Cl)Cl)ccc2Cl)c1F` (relative stereo) [F1023, trans-tert-Butyl-(3-(2-chloro-5-(2,2-dichloro-3-(3,5-dichlorophenyl)cyclopropane-1-carboxamido)benzamido)-2,4-difluorophenyl)carbamate] the pest or weed control at 50 µg/cm2 [1, 6] was 50 to 100%, the pest or weed control at 50 µg/cm2 [2, 7] was 50 to 100% and the YFM [3] was “A (80–100)”.

In the case of `O=C(Nc1ccc(F)cc1F)c1cc(NC(=O)[C@H]2[C@H](c3cc(F)c(Cl)c(Cl)c3)C2(Cl)Cl)ccc1Cl` (relative stereo) [F1024, trans-2-Chloro-5-(2,2-dichloro-3-(3,4-dichloro-5-fluorophenyl)cyclopropane-1-carboxamido)-N-(2,4-difluorophenyl)benzamide], the pest or weed control at 50 µg/cm2 [1, 6] is reported as 50 to 100%, the pest or weed control at 50 µg/cm2 [2, 7] is reported as 50 to 100% and the YFM [3] is reported as “A (80–100)”.

`O=C(Nc1ccc(F)cc1F)c1cc(NC(=O)[C@H]2[C@@H](c3cc(F)c(Cl)c(Cl)c3)C2(Cl)Cl)ccc1Cl` (relative stereo) [F1025, cis-2-Chloro-5-(2,2-dichloro-3-(3,4-dichloro-5-fluorophenyl)cyclopropane-1-carboxamido)-N-(2,4-difluorophenyl)benzamide] was tested, and the pest or weed control at 50 µg/cm2 [1, 6] was 50 to 100%, the pest or weed control at 50 µg/cm2 [2, 7] was 50 to 100% and the YFM [3] was “A (80–100)”.

In the case of `Nc1ccc(F)c(NC(=O)c2cc(NC(=O)[C@H]3[C@H](c4cc(Cl)cc(Cl)c4)C3(Cl)Cl)ccc2Cl)c1F` (relative stereo) [F1026, trans-N-(3-Amino-2,6-difluorophenyl)-2-chloro-5-(2,2-dichloro-3-(3,5-dichlorophenyl)cyclopropane-1-carboxamido)benzamide], the pest or weed control at 50 µg/cm2 [1, 6] is reported as 50 to 100%, the pest or weed control at 50 µg/cm2 [2, 7] is reported as 50 to 100% and the YFM [3] is reported as “A (80–100)”.

In the case of `O=C(Nc1ccc(F)cc1F)c1cc(NC(=O)[C@H]2[C@H](c3cc(Br)cc(S(F)(F)(F)(F)F)c3)C2(Cl)Cl)ccc1Cl` (relative stereo) [F1031, trans-5-(3-(3-Bromo-5-(pentafluoro-λ^6-sulfanyl)phenyl)-2,2-dichlorocyclopropane-1-carboxamido)-2-chloro-N-(2,4-difluorophenyl)benzamide], the pest or weed control at 50 µg/cm2 [1, 6] is reported as 50 to 100%, the pest or weed control at 50 µg/cm2 [2, 7] is reported as 50 to 100% and the YFM [3] is reported as “A (80–100)”.

`CCNC(=O)c1cc(NC(=O)[C@H]2[C@H](c3ccc(F)c(C(F)(F)F)c3)C2(Cl)Cl)c(F)cc1Cl` [F2083, 2-Chloro-5-((1R,3R)-2,2-dichloro-3-(4-fluoro-3-(trifluoromethyl)phenyl)cyclopropane-1-carboxamido)-N-ethyl-4-fluorobenzamide] was tested, and the pest or weed control at 50 µg/cm2 [2, 5] was 50 to 100% and the YFM rating [3] was “B (More than 0 – Less than 80)”.
